Measurements from patent US6645983B1, “Pharmaceutical compositions comprising 4-quinolones for treating cancers” (Laboratoire L. Lafon, priority 1999, dated 2003).

Tested on: SW1088
Test: MTT test, cytotoxic activity on non-clonogenic cell lines
Format: cell-based
Conditions: Homo sapiens, 10^−5 M, 72 hours of incubation, control condition = 100%, mean value, read-out: mean optical density as percentage of control, SW1088
Procedure, shortened: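 Human astrocytoma SW1088 cells seeded, grown 24 h at 37° C, 5% CO2, then exposed to compounds at 10^−5 to 10^−10 M versus solvent control. Viability by MTT reduction: 3 h MTT incubation, formazan dissolved in DMSO and read by spectrophotometry.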

Row | Structure (SMILES) | viability at 10 µM
1 | CCc1ccc(OC)c2c1c(=O)c(-c1ccc(OC)cc1)cn2C [CRL8414, 5-Ethyl-8-methoxy-3-(4-methoxyphenyl)-1-methyl-1,4-dihydro-4-quinolinone] | 94.4%
2 | COc1ccc(-c2cn(CCCC#N)c3cc(OC)cc(OC)c3c2=O)cc1 [CRL8420, 4-[5,7-Dimethoxy-3-(4-methoxyphenyl)-4-oxo-1,4-dihydro-1-quinolinyl]butanenitrile] | 117%
3 | COc1ccc(-c2cn(C)c3cc(OC)cc(NCc4ccccc4)c3c2=O)cc1 [CRL8424, 5-Benzylamino-7-methoxy-3-(4-methoxyphenyl)-1-methyl-1,4-dihydro-4-quinolinone] | 82.7%

Tested on: J82
Test: as above
Format: cell-based
Conditions: Homo sapiens, 10^−5 M, 72 hours of incubation, control condition = 100%, mean value, read-out: mean optical density as percentage of control, J82
Procedure, shortened: (§1)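 Human bladder cancer lines were seeded at 20 000–50 000 cells/ml and, after 24 h, exposed to compounds at 10^−5 to 10^−10 M against a solvent control. Formazan was dissolved in DMSO and viability was read by spectrophotometric optical density.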

Row | Structure (SMILES) | viability at 10 µM
4 | CCc1ccc(OC)c2c1c(=O)c(-c1ccc(OC)cc1)cn2C [CRL8414, 5-Ethyl-8-methoxy-3-(4-methoxyphenyl)-1-methyl-1,4-dihydro-4-quinolinone] | 110%
5 | COc1ccc(-c2cn(CCCC#N)c3cc(OC)cc(OC)c3c2=O)cc1 [CRL8420, 4-[5,7-Dimethoxy-3-(4-methoxyphenyl)-4-oxo-1,4-dihydro-1-quinolinyl]butanenitrile] | 92.3%
6 | COc1ccc(-c2cn(C)c3cc(OC)cc(NCc4ccccc4)c3c2=O)cc1 [CRL8424, 5-Benzylamino-7-methoxy-3-(4-methoxyphenyl)-1-methyl-1,4-dihydro-4-quinolinone] | 77.9%

Tested on: T24
Test: as above
Format: cell-based
Conditions: Homo sapiens, T-24; 10^−5 M, 72 hours of incubation, control condition = 100%, mean value; read-out: mean optical density as percentage of control, T24
Procedure, shortened: as §1

Row | Structure (SMILES) | viability at 10 µM
7 | CCc1ccc(OC)c2c1c(=O)c(-c1ccc(OC)cc1)cn2C [CRL8414, 5-Ethyl-8-methoxy-3-(4-methoxyphenyl)-1-methyl-1,4-dihydro-4-quinolinone] | 97.5%
8 | COc1ccc(-c2cn(CCCC#N)c3cc(OC)cc(OC)c3c2=O)cc1 [CRL8420, 4-[5,7-Dimethoxy-3-(4-methoxyphenyl)-4-oxo-1,4-dihydro-1-quinolinyl]butanenitrile] | 111%
9 | COc1ccc(-c2cn(C)c3cc(OC)cc(NCc4ccccc4)c3c2=O)cc1 [CRL8424, 5-Benzylamino-7-methoxy-3-(4-methoxyphenyl)-1-methyl-1,4-dihydro-4-quinolinone] | 102%

Tested on: U-373MG
Test: as above
Format: cell-based
Conditions: Homo sapiens, U373 MG; 10^−5 M, 72 hours of incubation, control condition = 100%, mean value; read-out: mean optical density as percentage of control, U-373MG
Procedure, shortened: (§2)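 Human cancer lines seeded at 20 000–50 000 cells/ml, allowed 24 h to attach, then exposed to compounds at 10^−5 to 10^−10 M versus solvent control.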

Row | Structure (SMILES) | viability at 10 µM
10 | CCc1ccc(OC)c2c1c(=O)c(-c1ccc(OC)cc1)cn2C [CRL8414, 5-Ethyl-8-methoxy-3-(4-methoxyphenyl)-1-methyl-1,4-dihydro-4-quinolinone] | 81.7%
11 | COc1ccc(-c2cn(CCCC#N)c3cc(OC)cc(OC)c3c2=O)cc1 [CRL8420, 4-[5,7-Dimethoxy-3-(4-methoxyphenyl)-4-oxo-1,4-dihydro-1-quinolinyl]butanenitrile] | 96.6%
12 | COc1ccc(-c2cn(C)c3cc(OC)cc(NCc4ccccc4)c3c2=O)cc1 [CRL8424, 5-Benzylamino-7-methoxy-3-(4-methoxyphenyl)-1-methyl-1,4-dihydro-4-quinolinone] | 82.5%

Tested on: HCT-15
Test: as above
Format: cell-based
Conditions: Homo sapiens, 10^−5 M, 72 hours of incubation, control condition = 100%, mean value, read-out: mean optical density as percentage of control, HCT-16
Procedure, shortened: as §2

Row | Structure (SMILES) | viability at 10 µM
13 | CCc1ccc(OC)c2c1c(=O)c(-c1ccc(OC)cc1)cn2C [CRL8414, 5-Ethyl-8-methoxy-3-(4-methoxyphenyl)-1-methyl-1,4-dihydro-4-quinolinone] | 83.4%
14 | COc1ccc(-c2cn(CCCC#N)c3cc(OC)cc(OC)c3c2=O)cc1 [CRL8420, 4-[5,7-Dimethoxy-3-(4-methoxyphenyl)-4-oxo-1,4-dihydro-1-quinolinyl]butanenitrile] | 109%
15 | COc1ccc(-c2cn(C)c3cc(OC)cc(NCc4ccccc4)c3c2=O)cc1 [CRL8424, 5-Benzylamino-7-methoxy-3-(4-methoxyphenyl)-1-methyl-1,4-dihydro-4-quinolinone] | 49.8%

Tested on: A-427
Test: as above
Format: cell-based
Conditions: Homo sapiens, 10^−5 M, 72 hours of incubation, control condition = 100%, mean value, read-out: mean optical density as percentage of control, A-427
Procedure, shortened: as §2

Row | Structure (SMILES) | viability at 10 µM
16 | CCc1ccc(OC)c2c1c(=O)c(-c1ccc(OC)cc1)cn2C [CRL8414, 5-Ethyl-8-methoxy-3-(4-methoxyphenyl)-1-methyl-1,4-dihydro-4-quinolinone] | 82.2%
17 | COc1ccc(-c2cn(CCCC#N)c3cc(OC)cc(OC)c3c2=O)cc1 [CRL8420, 4-[5,7-Dimethoxy-3-(4-methoxyphenyl)-4-oxo-1,4-dihydro-1-quinolinyl]butanenitrile] | 102%
18 | COc1ccc(-c2cn(C)c3cc(OC)cc(NCc4ccccc4)c3c2=O)cc1 [CRL8424, 5-Benzylamino-7-methoxy-3-(4-methoxyphenyl)-1-methyl-1,4-dihydro-4-quinolinone] | 72.7%

Tested on: U-87MG
Test: as above
Format: cell-based
Conditions: Homo sapiens, U-87 MG; 10^−5 M, 72 hours of incubation, control condition = 100%, mean value; read-out: mean optical density as percentage of control, U-87MG
Procedure, shortened: as §2

Row | Structure (SMILES) | viability at 10 µM
19 | CCc1ccc(OC)c2c1c(=O)c(-c1ccc(OC)cc1)cn2C [CRL8414, 5-Ethyl-8-methoxy-3-(4-methoxyphenyl)-1-methyl-1,4-dihydro-4-quinolinone] | 81.2%
20 | COc1ccc(-c2cn(CCCC#N)c3cc(OC)cc(OC)c3c2=O)cc1 [CRL8420, 4-[5,7-Dimethoxy-3-(4-methoxyphenyl)-4-oxo-1,4-dihydro-1-quinolinyl]butanenitrile] | 92.9%
21 | COc1ccc(-c2cn(C)c3cc(OC)cc(NCc4ccccc4)c3c2=O)cc1 [CRL8424, 5-Benzylamino-7-methoxy-3-(4-methoxyphenyl)-1-methyl-1,4-dihydro-4-quinolinone] | 87.9%

Tested on: A549
Test: as above
Format: cell-based
Conditions: Homo sapiens, 10^−5 M, 72 hours of incubation, control condition = 100%, mean value, read-out: mean optical density as percentage of control, A549
Procedure, shortened: as §2

Row | Structure (SMILES) | viability at 10 µM
22 | CCc1ccc(OC)c2c1c(=O)c(-c1ccc(OC)cc1)cn2C [CRL8414, 5-Ethyl-8-methoxy-3-(4-methoxyphenyl)-1-methyl-1,4-dihydro-4-quinolinone] | 71.8%
23 | COc1ccc(-c2cn(CCCC#N)c3cc(OC)cc(OC)c3c2=O)cc1 [CRL8420, 4-[5,7-Dimethoxy-3-(4-methoxyphenyl)-4-oxo-1,4-dihydro-1-quinolinyl]butanenitrile] | 94.5%
24 | COc1ccc(-c2cn(C)c3cc(OC)cc(NCc4ccccc4)c3c2=O)cc1 [CRL8424, 5-Benzylamino-7-methoxy-3-(4-methoxyphenyl)-1-methyl-1,4-dihydro-4-quinolinone] | 111%

Tested on: PC-3
Test: as above
Format: cell-based
Conditions: Homo sapiens, 10^−5 M, 72 hours of incubation, control condition = 100%, mean value, read-out: mean optical density as percentage of control, PC-3
Procedure, shortened: as §2

Row | Structure (SMILES) | viability at 10 µM
25 | CCc1ccc(OC)c2c1c(=O)c(-c1ccc(OC)cc1)cn2C [CRL8414, 5-Ethyl-8-methoxy-3-(4-methoxyphenyl)-1-methyl-1,4-dihydro-4-quinolinone] | 94.3%
26 | COc1ccc(-c2cn(CCCC#N)c3cc(OC)cc(OC)c3c2=O)cc1 [CRL8420, 4-[5,7-Dimethoxy-3-(4-methoxyphenyl)-4-oxo-1,4-dihydro-1-quinolinyl]butanenitrile] | 86%
27 | COc1ccc(-c2cn(C)c3cc(OC)cc(NCc4ccccc4)c3c2=O)cc1 [CRL8424, 5-Benzylamino-7-methoxy-3-(4-methoxyphenyl)-1-methyl-1,4-dihydro-4-quinolinone] | 108%

Tested on: T-47D
Test: as above
Format: cell-based
Conditions: Homo sapiens, T47D; 10^−5 M, 72 hours of incubation, control condition = 100%, mean value; read-out: mean optical density as percentage of control, T-47D
Procedure, shortened: as §2

Row | Structure (SMILES) | viability at 10 µM
28 | CCc1ccc(OC)c2c1c(=O)c(-c1ccc(OC)cc1)cn2C [CRL8414, 5-Ethyl-8-methoxy-3-(4-methoxyphenyl)-1-methyl-1,4-dihydro-4-quinolinone] | 96.2%
29 | COc1ccc(-c2cn(CCCC#N)c3cc(OC)cc(OC)c3c2=O)cc1 [CRL8420, 4-[5,7-Dimethoxy-3-(4-methoxyphenyl)-4-oxo-1,4-dihydro-1-quinolinyl]butanenitrile] | 104%
30 | COc1ccc(-c2cn(C)c3cc(OC)cc(NCc4ccccc4)c3c2=O)cc1 [CRL8424, 5-Benzylamino-7-methoxy-3-(4-methoxyphenyl)-1-methyl-1,4-dihydro-4-quinolinone] | 108%

Tested on: LoVo
Test: as above
Format: cell-based
Conditions: Homo sapiens, 10^−5 M, 72 hours of incubation, control condition = 100%, mean value, read-out: mean optical density as percentage of control, LoVo
Procedure, shortened: as §2

Row | Structure (SMILES) | viability at 10 µM
31 | CCc1ccc(OC)c2c1c(=O)c(-c1ccc(OC)cc1)cn2C [CRL8414, 5-Ethyl-8-methoxy-3-(4-methoxyphenyl)-1-methyl-1,4-dihydro-4-quinolinone] | 84.2%
32 | COc1ccc(-c2cn(CCCC#N)c3cc(OC)cc(OC)c3c2=O)cc1 [CRL8420, 4-[5,7-Dimethoxy-3-(4-methoxyphenyl)-4-oxo-1,4-dihydro-1-quinolinyl]butanenitrile] | 81.2%
33 | COc1ccc(-c2cn(C)c3cc(OC)cc(NCc4ccccc4)c3c2=O)cc1 [CRL8424, 5-Benzylamino-7-methoxy-3-(4-methoxyphenyl)-1-methyl-1,4-dihydro-4-quinolinone] | 69.8%

Tested on: MCF7
Test: as above
Format: cell-based
Conditions: Homo sapiens, 10^−5 M, 72 hours of incubation, control condition = 100%, mean value, read-out: mean optical density as percentage of control, MCF7
Procedure, shortened: as §2

Row | Structure (SMILES) | viability at 10 µM
34 | CCc1ccc(OC)c2c1c(=O)c(-c1ccc(OC)cc1)cn2C [CRL8414, 5-Ethyl-8-methoxy-3-(4-methoxyphenyl)-1-methyl-1,4-dihydro-4-quinolinone] | 104%
35 | COc1ccc(-c2cn(CCCC#N)c3cc(OC)cc(OC)c3c2=O)cc1 [CRL8420, 4-[5,7-Dimethoxy-3-(4-methoxyphenyl)-4-oxo-1,4-dihydro-1-quinolinyl]butanenitrile] | 103%
36 | COc1ccc(-c2cn(C)c3cc(OC)cc(NCc4ccccc4)c3c2=O)cc1 [CRL8424, 5-Benzylamino-7-methoxy-3-(4-methoxyphenyl)-1-methyl-1,4-dihydro-4-quinolinone] | 95.4%

Tested on: not listed separately
Test: Determination of the maximum tolerated dose (MTD)
Conditions: B6D2F1/Jico, mouse, in vivo, ip; single intraperitoneal administration, doses 2.5 to 160 mg/kg, survival over 14 days
Procedure, shortened: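 Mice were 4- to 6-week-old B6D2F1/Jico. They received a single intraperitoneal dose of 2.5 to 160 mg/kg, and survival and body weight were followed for 14 days. MTD is given in mg/kg and is capped at 160 mg/kg by default.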

Row | Structure (SMILES) | MTD at 14 day
37 | CCc1ccc(OC)c2c1c(=O)c(-c1ccc(OC)cc1)cn2C [CRL8414, 5-Ethyl-8-methoxy-3-(4-methoxyphenyl)-1-methyl-1,4-dihydro-4-quinolinone] | > 160 mg/kg
38 | COc1ccc(-c2cn(CCCC#N)c3cc(OC)cc(OC)c3c2=O)cc1 [CRL8420, 4-[5,7-Dimethoxy-3-(4-methoxyphenyl)-4-oxo-1,4-dihydro-1-quinolinyl]butanenitrile] | > 160 mg/kg
39 | COc1ccc(-c2cn(C)c3cc(OC)cc(NCc4ccccc4)c3c2=O)cc1 [CRL8424, 5-Benzylamino-7-methoxy-3-(4-methoxyphenyl)-1-methyl-1,4-dihydro-4-quinolinone] | > 160 mg/kg
